Read-outs that look alike come from different tables or passages of the source.
Key:
5-HT1A receptors [1] = target: T1, 5-HT1A receptors (Rattus norvegicus, UniProt P19327); experiment: Flat body posture (FBP), agonist response and antagonism of 8-OH-DPAT; assay type: in vivo, male Wistar rats; set-up: from tissue; host or cells: whole animal, male Wistar rat (in vivo); conditions: sc
T1 sequence (P19327 1-422): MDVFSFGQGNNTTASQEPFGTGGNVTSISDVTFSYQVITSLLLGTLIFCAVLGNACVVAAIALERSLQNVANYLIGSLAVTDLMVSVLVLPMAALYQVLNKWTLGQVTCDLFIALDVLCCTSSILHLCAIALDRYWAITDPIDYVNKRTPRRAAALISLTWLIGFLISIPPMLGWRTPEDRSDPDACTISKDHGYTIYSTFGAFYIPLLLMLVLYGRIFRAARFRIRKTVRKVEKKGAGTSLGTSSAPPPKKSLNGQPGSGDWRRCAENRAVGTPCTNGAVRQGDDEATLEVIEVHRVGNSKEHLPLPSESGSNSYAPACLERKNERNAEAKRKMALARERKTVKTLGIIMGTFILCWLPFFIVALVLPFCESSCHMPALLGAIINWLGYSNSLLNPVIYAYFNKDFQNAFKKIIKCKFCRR
Method: (§1) The tests were carried out on male Wistar rats weighing from 200 to 220 g which had free access to food and drinking water, in standard cages.
(§2) The animals are housed individually for the hypothermia, corticosterone secretion and flat body posture tests, and in groups of three for the tail flick test.
(§3) The laboratory temperature is kept at 21°±1° C., with 60 ±5% humidity. The rats are subjected to a light/dark cycle of 12 hours/12 hours (the light cycle commencing at 7.30 a.m.).
(§4) a/ General procedure for tests of agonist and antagonist activities on 5-HT1A receptors.
(§5) The test compounds were administered subcutaneously (s.c.) 60 minutes before the start of the test, that is to say 30 minutes before the vehicle (agonist responses) or 8-OH-DPAT (antagonist responses).
(§6) In all the tests, the solvent is used in parallel as the control. The animals were allowed to rest in their cages during the time between the injections and evaluation.
(§7) For the agonist studies, the solvent was administered at a dose of 1 ml/kg s.c. 30 minutes before the start of the test. For the antagonist studies, doses of 8-OH-DPAT inducing sub-maximal responses were chosen, i.e. doses of 0.63, 0.16, 0.16 and 0.16 mg/kg s.c. for the tail flick test, the flat body posture test, the corticosterone secretion test and the hypothermia test, respectively.
(§8) The same animals were employed for the evaluation of the effect of the test compounds on the FBP and for the determination of the plasma levels of CS. All the tests were carried out in the morning between 10.30 and 12.30, i.e. when the cicardian levels of CS are at their lowest.
25 minutes after the treatment (i.e. 5 minutes before decapitation), the animals are observed in their cages and the presence or absence of FBP is noted.
(§9) The presence of FBP is defined by a characteristic posture of the animal. The animal is then in a position of ventral decubitus with the hind limbs clearly in extension. 5 minutes after observation of FBP, the animals are decapitated and the trunk blood is collected in chilled tubes containing 50 μl of a 10% EDTA solution. After centrifugation at 4000 rpm, the plasma is removed and stored at -30° C. until assay.
(§10) In general, after variance analysis, the results are subjected to Dunnett's test. Results are regarded as significant if p<0.05.
For the dose-response for induction and inhibition of FBP, the effective doses 50 (ED50) (doses at which 50% of the animals show a response) were calculated by the method of Litchfield and Wilcoxon.
(§11) The doses of the test compounds are all expressed in terms of the base. Unless otherwise mentioned, all the compounds were dissolved in sterile water (to which a few drops of lactic acid are added, if necessary) and administered at a volume of 1 ml/kg s.c..

5-HT1A receptors [2] = target: T1, 5-HT1A receptors; experiment: Spontaneous tail flick test (STF), agonist and antagonist activity; assay type: in vivo, male Wistar rats; set-up: from tissue; host or cells: whole animal, male Wistar rat (in vivo); conditions: for ED50: rat, sc, 1 h, antagonist: inhibition of STF induced by 8-OH-DPAT 0.63 mg/kg s.c., compound s.c. 60 min before test, read-out: Spontaneous tail flicks ID50 (95% C.L.); for Spontaneous tail flicks M.E.D.: agonist: induction of STF, s.c., minimum effective dose
Method: as §1, §2, §3, §4, §5, §6, §7
Tail flicks were determined in animals restrained in horizontal, opaque plastics cylinders, the animals' tails hanging freely over the edge of the laboratory bench. After a 5-minute adaptation period, the number of movements made in 5 minutes is recorded. One STF is defined as the raising of the tail to a level higher than the level of the body axis [Millan M. J. et al., J. Pharmacol. Exp. Ther., 256, 973-982 (1990)].
as §10, §11

5-HT1A receptors [3] = target: T1, 5-HT1A receptors; experiment: Corticosterone secretion (CS), plasma, agonist and antagonist activity; assay type: in vivo, male Wistar rats; set-up: from tissue; host or cells: whole animal, male Wistar rat (in vivo); conditions: for Corticosterone secretion M.E.D.: agonist: induction of CS, s.c., minimum effective dose; for ED50: rat, sc, 1 h, antagonist: inhibition of CS induced by 8-OH-DPAT 0.16 mg/kg s.c., compound s.c. 60 min before test, read-out: Corticosterone secretion ID50 (95% C.L.)
Method: as §1, §2, §3, §4, §5, §6, §7, §8, §9
CS was determined using a radio-competitive assay for a CS-binding protein in plasma: transcortin. The latter is obtained from monkey serum. Separation of the CS-transcortin complexes from free CS was effected by means of a solution of dextran and active charcoal. The detection limit was 50 pg/tube. Intra- and inter-assay variations were 5 and 15%, respectively [cf. Rivet J. M. et al., Eur. J. Pharmacol., 183, 634-635 (1990)].
Since the base levels of CS in plasma are never zero, the following formula was used to calculate the percentage inhibition of plasmatic CS induced by 8-OH-DPAT: [formula]
as §10, §11

5-HT1A receptors [4] = target: T1, 5-HT1A receptors; experiment: Body temperature (hypothermia), agonist and antagonist activity; assay type: in vivo, male Wistar rats; set-up: from tissue; host or cells: whole animal, male Wistar rat (in vivo); conditions: for Hypothermia M.E.D.: agonist: induction of hypothermia, s.c., minimum effective dose; for ED50: rat, sc, 1 h, antagonist: inhibition of hypothermia induced by 8-OH-DPAT 0.16 mg/kg s.c., compound s.c. 60 min before test, read-out: Hypothermia ID50 (95% C.L.)
Method: as §1, §2, §3, §4, §5, §6, §7
The rats are immobilised and a lubricated digital thermometer (Thermistoprobe from Testotherm, Basle, Switzerland) is inserted into the rectum to a depth of 5 cm. 30 seconds after insertion, the temperature is read off a digital scale. The percentage inhibition is calculated with the aid of the formula mentioned above.
as §10, §11

5-HT1A receptors [5] = target: T1, 5-HT1A receptors; experiment: In vitro binding test, 5-HT1A receptors, [3]H-8-OH-DPAT, rat hippocampus membranes; set-up: Hippocampus from the brains of decapitated rats; from tissue; host or cells: rat hippocampus membranes (male Wistar); species or system rat (male Wistar)
Method: Hippocampus from the brains of decapitated rats was immediately frozen on dry ice and then stored at -80° C. until preparation of membranes. The tissue was homogenised at 4° C. in the appropriate buffer using a Polytron (Brinkman Instruments - Lucerne - Switzerland) and centrifuged at 20,000 rpm.
Incubation was carried out at 25° C. for 30 minutes. Non-specific binding was defined by 10 μM of 5-HT. The tests were terminated by rapid filtration by means of a Brandel harvester over glass-fibre filters pretreated with 0.1% polyethyleneimine.
The inhibitory concentration 50 values (IC50) were determined according to method 8 of Tallarida R. J. and Murray R. B., Manual of pharmacological calculations with computer programs, Springer Verlag, N.Y. (1987).
The pKi was calculated according to the formula [formula] where [L] is the concentration of the hot ligand ([3]H-8-OH-DPAT, 0.4 nM) and Kd is the apparent dissociation constant determined from saturation experiments.
The test substances were dissolved in the incubation buffer.

[6] = 1 h, read-out: Flat body posture ED50 (95% C.L.), antagonism of 8-OH-DPAT, inhibition of FBP, 8-OH-DPAT 0.16 mg/kg s.c., compound s.c. 60 min before test
[7] = induction of FBP, s.c., dose at which 50% of the animals show a response, read-out: Flat body posture ED50 (95% C.L.), agonist response
[8] = hot ligand [3]H-8-OH-DPAT 0.4 nM, rat hippocampus membranes, 25° C., 30 minutes
[9] = hot ligand [3]H-8-OH-DPAT 0.4 nM, rat hippocampus membranes, 25° C., 30 minutes, read-out: Affinity (pKi) (converted)

| Compound | ED50 (5-HT1A receptors [1]; [6]) [mg/kg] | ED50 (5-HT1A receptors [1]; [7]) [mg/kg] | ED50 (5-HT1A receptors [2]) [mg/kg] | Corticosterone secretion M.E.D. (5-HT1A receptors [3]) [mg/kg] | ED50 (5-HT1A receptors [3]) [mg/kg] | Hypothermia M.E.D. (5-HT1A receptors [4]) [mg/kg] | ED50 (5-HT1A receptors [4]) [mg/kg] | Spontaneous tail flicks M.E.D. (5-HT1A receptors [2]) [mg/kg] | Affinity (pKi) (5-HT1A receptors [5]; [8]) | Ki (5-HT1A receptors [5]; [9]) [nM] | Ki (5-HT1A receptors [5]) [nM] |
| --- | --- | --- | --- | --- | --- | --- | --- | --- | --- | --- | --- |
| c1ccc2c(c1)CC(CN1CCN(c3cccc4c3OCCO4)CC1)C2 [Example 14, 4-(benzodioxan-5-yl)-1-[(indan-2-yl)-methyl]-piperazine] | ≥ 2.5 | > 2.5 | 0.19 | > 2.5 | > 2.5 | > 10.0 | < 2.5 | – | – | – | 3.39 |
| c1ccc2c(c1)CC(N1CCN(c3cccc4c3OCCCO4)CC1)C2 [Example 9, 4-[benzo(1,5)dioxepin-6-yl]-1-(indan-2-yl)-piperazine] | < 2.5 | > 2.5 | 1.59 | > 2.5 | > 2.5 | 5.0 | 4.36 | > 10.0 | 8.42 | – | – |
| c1ccc2c(c1)CC2CCN1CCN(c2cccc3c2OCCCO3)CC1 (racemic) [Example 3, (R,S)-4-[benzo(1,5)dioxepin-6-yl]-1-[2-(benzocyclobutan-1-yl)-ethyl]-piperazine] | 1.55 | > 10 | 0.32 | > 10.0 | 2.15 | > 20.0 | 1.64 | > 10.0 | – | – | – |
| C1=C(CCN2CCN(c3cccc4c3OCCO4)CC2)c2ccccc2C1 [Example 18, 4-(benzodioxan-5-yl)-1-[2-(ind-1-en-1-yl)-ethyl]-piperazine] | – | – | – | – | – | – | – | – | – | – | 0.813 |
| c1ccc2c(c1)CC2CCCCN1CCN(c2cccc3c2OCCO3)CC1 (racemic) [Example 8, (R,S)-4-(benzodioxan-5-yl)-1-[4-(benzocyclobutan-1-yl)-butyl]-piperazine] | – | – | – | – | – | – | – | – | – | – | 1.58 |
| c1ccc2c(c1)CCC2CN1CCN(c2cccc3c2OCCO3)CC1 (racemic) [Example 15, (R,S)-4-(benzodioxan-5-yl)-1-[(indan-1-yl)-methyl]-piperazine] | ≥ 2.5 | > 2.5 | 0.085 | > 2.5 | > 2.5 | 10.0 | 1.53 | – | – | – | 2 |
| COc1cc2c(cc1OC)C(CCN1CCN(c3cccc4c3OCCO4)CC1)CC2 (racemic) [Example 19, (R,S)-4-(benzodioxan-5-yl)-1-[2-(5,6-dimethoxyindan-1-yl)-ethyl]-piperazine] | – | – | – | – | – | – | – | – | – | 1.48 | – |

Continued, in another order:

| ED50 (5-HT1A receptors [1]; [6]) [mg/kg] | ED50 (5-HT1A receptors [1]; [7]) [mg/kg] | ED50 (5-HT1A receptors [2]) [mg/kg] | Corticosterone secretion M.E.D. (5-HT1A receptors [3]) [mg/kg] | ED50 (5-HT1A receptors [3]) [mg/kg] | Hypothermia M.E.D. (5-HT1A receptors [4]) [mg/kg] | ED50 (5-HT1A receptors [4]) [mg/kg] | Spontaneous tail flicks M.E.D. (5-HT1A receptors [2]) [mg/kg] | Affinity (pKi) (5-HT1A receptors [5]; [8]) | Ki (5-HT1A receptors [5]; [9]) [nM] | Compound | Ki (5-HT1A receptors [5]) [nM] |
| --- | --- | --- | --- | --- | --- | --- | --- | --- | --- | --- | --- |
| 1.03 | > 10 | 0.74 | > 10.0 | 1.92 | > 40.0 | 1.19 | > 10.0 | – | – | c1ccc2c(c1)CCC2CCN1CCN(c2cccc3c2OCCO3)CC1 (racemic) [Example 22, (R,S)-4-(benzodioxan-5-yl)-1-[2-(indan-1-yl)-ethyl]-piperazine] | – |
| 0.52 | > 10 | 0.74 | > 10.0 | 2.5 | 20.0 | 1.6 | > 10.0 | 8.75 | – | c1ccc2c(c1)CC(N1CCN(c3cccc4c3OCCO4)CC1)C2 [Example 7, 4-(benzodioxan-5-yl)-1-(indan-2-yl)-piperazine] | – |
| – | – | – | – | – | – | – | – | – | 3.47 | COc1cc2c(cc1OC)C(CCN1CCN(c3cccc4c3OCCO4)CC1)C2 (racemic) [Example 17, (R,S)-4-(benzodioxan-5-yl)-1-[2-(4,5-dimethoxybenzocyclobutan-1-yl)-ethyl]-piperazine] | – |
| – | – | – | – | – | – | – | – | – | 1.41 | COc1ccc2c(c1)C(CCN1CCN(c3cccc4c3OCCO4)CC1)C2 (racemic) [Example 16, (R,S)-4-(benzodioxan-5-yl)-1-[2-(5-methoxybenzocyclobutan-1-yl)-ethyl]-piperazine] | – |
| < 2.5 | > 2.5 | 0.18 | > 2.5 | < 2.5 | 10.0 | 0.58 | – | 9.18 | – | c1ccc2c(c1)CC(CCN1CCN(c3cccc4c3OCCO4)CC1)C2 [Example 20, 4-(benzodioxan-5-yl)-1-[2-(indan-2-yl)-ethyl]-piperazine] | – |
| 0.57 | > 10 | 0.13 | 10.0 | 1.27 | 10.0 | 0.21 | > 10.0 | – | – | c1ccc2c(c1)CC2CCCN1CCN(c2cccc3c2OCCO3)CC1 (racemic) [Example 13, (R,S)-4-(benzodioxan-5-yl)-1-[3-(benzocyclobutan-1-yl)-propyl]-piperazine] | – |
| 0.29 | 10 | 0.56 | > 2.5 | < 2.5 | 5.0 | 0.4 | – | – | – | c1ccc2c(c1)CCC2CCCN1CCN(c2cccc3c2OCCO3)CC1 (racemic) [Example 23, (R,S)-4-(benzodioxan-5-yl)-1-[3-(indan-1-yl)-propyl]piperazine] | – |

Source: US5194437A, “1,4-disubstituted piperazines” (Adir et Compagnie, priority 1990, dated 1993)
